Measurements as given in patent US20150290357A1, “ANTIMICROBIAL ADHESIVE” (GeneJet Biotech, Inc., priority 2014, published 2015).

Tested on: staphylococcus aureus
Test: Antimicrobial inhibition zone test based on ATCC6538p
Format: cell-based
Method: The antimicrobial adhesive prepared by the foregoing method is placed in a 7 ml glass vial and it is used to perform stability test for Ag/PP particulates, polymerization test for the cyanoacrylate monomers (as shown in Table 1), antimicrobial test for staphylococcus aureus (as shown in Table 2) and antimicrobial test for escherichia coli (as shown in Table 3).

SMILES: C=C(C#N)C(=O)OC(C)CCCCCC (centres unmarked) [Experiment C, 2-octyl cyanoacrylate]
- Increased in the diameter of inhibition zone (%) (compared to Control) (compared to Control (filter paper)): 16.4%
- Diameter of inhibition zone (on filter paper, ATCC6538p): 0.93 cm
